The record followed here is ChEMBL document CHEMBL3872220, “Amphiphilic xanthones as a potent chemical entity of anti-mycobacterial agents with membrane-targeting properties” (Eur J Med Chem, 2016).

Values after ≈ are worked out from the molar mass of the structure shown. Active and inactive are the calls of the source. No cut-off for these calls is given here.

The MIC90 is the lowest concentration that inhibits either 90% of growth or 90% of the strains tested, depending on the study.

Experiment [1] concerns Mycobacterium tuberculosis variant bovis. As to the kind of experiment: Antimycobacterial activity against Mycobacterium bovis BCG ATCC 35734 assessed as ATP leakage by measuring extracellular ATP at 1 MIC measured at 9 hrs post dose by luciferase reporter gene assay. It counts as functional, Mycobacterium tuberculosis variant bovis BCG. A general note: Reporter assays use an easily measured gene product as a stand-in for the process of interest.

Experiment [2] shares this test system. As to the kind of experiment: Antimycobacterial activity against Mycobacterium bovis BCG ATCC 35734 assessed as ATP leakage by measuring extracellular ATP at 2 times MIC measured at 24 hrs post dose by luciferase reporter gene assay. It counts as functional, Mycobacterium tuberculosis variant bovis BCG.
Experiment [3] shares this test system. Briefly: Antimycobacterial activity against Mycobacterium bovis BCG ATCC 35734 assessed as ATP leakage by measuring extracellular ATP at 1 MIC measured at 24 hrs post dose by luciferase reporter gene assay. It counts as functional, Mycobacterium tuberculosis variant bovis BCG.
For experiment [4] the test system is unchanged. As to the kind of experiment: Antimycobacterial activity against Mycobacterium bovis BCG ATCC 35734 assessed as ATP leakage by measuring intracellular ATP at 2 times MIC measured at 9 hrs post dose by luciferase reporter gene assay. It counts as functional, Mycobacterium tuberculosis variant bovis BCG.
For experiment [5] the test system is unchanged. As to the kind of experiment: Induction of membrane disruption in Mycobacterium bovis BCG ATCC 35734 at 60 uM up to 3 hrs by Sytox green uptake assay. The format is functional.
Experiment [6] shares this test system. As to the kind of experiment: Antimycobacterial activity against Mycobacterium bovis BCG ATCC 35734 assessed as ATP leakage by measuring extracellular ATP at 0.5 times MIC measured immediatey after addition of compounds by luciferase reporter gene assay. The format is functional, Mycobacterium tuberculosis variant bovis BCG.
The test system is the same in experiment [7]. As to the kind of experiment: Antimycobacterial activity against Mycobacterium bovis BCG ATCC 35734 assessed as ATP leakage by measuring intracellular ATP at 2 times MIC measured immediatey after addition of compounds by luciferase reporter gene assay. It counts as functional, Mycobacterium tuberculosis variant bovis BCG.
For experiment [8] the test system is unchanged. As to the kind of experiment: Antimycobacterial activity against Mycobacterium bovis BCG ATCC 35734 assessed as ATP leakage by measuring intracellular ATP at 1 MIC measured immediatey after addition of compounds by luciferase reporter gene assay. The format is functional, Mycobacterium tuberculosis variant bovis BCG.
Experiment [9] shares this test system. Briefly: Antimycobacterial activity against Mycobacterium bovis BCG ATCC 35734 assessed as ATP leakage by measuring intracellular ATP at 0.5 times MIC measured immediatey after addition of compounds by luciferase reporter gene assay. The format is functional, Mycobacterium tuberculosis variant bovis BCG.
Experiment [10] shares this test system. As to the kind of experiment: Antimycobacterial activity against Mycobacterium bovis BCG ATCC 35734 assessed as ATP leakage by measuring extracellular ATP at 4 times MIC measured immediatey after addition of compounds by luciferase reporter gene assay. It counts as functional, Mycobacterium tuberculosis variant bovis BCG.
For experiment [11] the test system is unchanged. As to the kind of experiment: Antimycobacterial activity against Mycobacterium bovis BCG ATCC 35734 after 5 days by broth dilution assay. The format is functional. The following applies: ATCC 35734, 120 h. For orientation: Dilution methods test growth across graded concentrations, often in twofold steps.
For experiment [12] the test system is unchanged. As to the kind of experiment: Antimycobacterial activity against Mycobacterium bovis BCG ATCC 35734 assessed as ATP leakage by measuring extracellular ATP at 0.5 times MIC measured at 6 hrs post dose by luciferase reporter gene assay. The format is functional, Mycobacterium tuberculosis variant bovis BCG.
The test system is the same in experiment [13]. Briefly: Antimycobacterial activity against Mycobacterium bovis BCG ATCC 35734 assessed as ATP leakage by measuring intracellular ATP at 2 times MIC measured at 3 hrs post dose by luciferase reporter gene assay. The format is functional, Mycobacterium tuberculosis variant bovis BCG.
The test system is the same in experiment [14]. Briefly: Antimycobacterial activity against Mycobacterium bovis BCG ATCC 35734 assessed as ATP leakage by measuring intracellular ATP at 1 MIC measured at 3 hrs post dose by luciferase reporter gene assay. The format is functional, Mycobacterium tuberculosis variant bovis BCG.
For experiment [15] the test system is unchanged. As to the kind of experiment: Antimycobacterial activity against Mycobacterium bovis BCG ATCC 35734 assessed as ATP leakage by measuring intracellular ATP at 0.5 times MIC measured at 3 hrs post dose by luciferase reporter gene assay. It counts as functional, Mycobacterium tuberculosis variant bovis BCG.
Experiment [16] shares this test system. Briefly: Antimycobacterial activity against Mycobacterium bovis BCG ATCC 35734 assessed as ATP leakage by measuring extracellular ATP at 4 times MIC measured at 3 hrs post dose by luciferase reporter gene assay. It counts as functional, Mycobacterium tuberculosis variant bovis BCG.
Experiment [17] has the same test system. Briefly: Antimycobacterial activity against Mycobacterium bovis BCG ATCC 35734 assessed as ATP leakage by measuring intracellular ATP at 0.5 times MIC measured at 1 hr post dose by luciferase reporter gene assay. It counts as functional, Mycobacterium tuberculosis variant bovis BCG.
Experiment [18] has the same test system. Briefly: Antimycobacterial activity against Mycobacterium bovis BCG ATCC 35734 assessed as ATP leakage by measuring extracellular ATP at 0.5 times MIC measured at 1 hr post dose by luciferase reporter gene assay. The format is functional, Mycobacterium tuberculosis variant bovis BCG.
Experiment [19] has the same test system. As to the kind of experiment: Induction of membrane integrity impairment in Mycobacterium bovis BCG ATCC 35734 assessed as pH shift at 30 uM after 3 hrs by dye based fluorescence spectroscopic method relative to control. It counts as functional, Mycobacterium tuberculosis variant bovis BCG.
The test system is the same in experiment [20]. As to the kind of experiment: Antimycobacterial activity against Mycobacterium bovis BCG ATCC 35734 assessed as ATP leakage by measuring intracellular ATP at 1 MIC measured at 24 hrs post dose by luciferase reporter gene assay. It counts as functional, Mycobacterium tuberculosis variant bovis BCG.
Experiment [21] has the same test system. As to the kind of experiment: Bactericidal activity against Mycobacterium bovis BCG ATCC 35734 assessed as log reduction in bacterial colonies at 4 times MIC measured after 24 hrs by time-kill assay. The format is functional, Mycobacterium tuberculosis variant bovis BCG.
For experiment [22] the test system is unchanged. Briefly: Bactericidal activity against Mycobacterium bovis BCG ATCC 35734 assessed as log reduction in bacterial colonies at 4 times MIC measured after 3 hrs by time-kill assay. It counts as functional, Mycobacterium tuberculosis variant bovis BCG.
Experiment [23] shares this test system. As to the kind of experiment: Bactericidal activity against Mycobacterium bovis BCG ATCC 35734 measured after 14 days by time-kill assay. The format is functional.
The test system is the same in experiment [24]. As to the kind of experiment: Bactericidal activity against Mycobacterium bovis BCG ATCC 35734 assessed as log reduction in bacterial colonies measured up to 24 hrs by time-kill assay. It counts as functional.

Turning to `CCN(CC)CCCCOc1cc2oc3cc(OCCCCN(CC)CC)c(OC)c(CC=C(C)C)c3c(=O)c2c(O)c1CC=C(C)C`, the Activity in [1] amounted to 85.3%; in [2] it was 94.1%; in [3] it was 86.4%; in experiment [4] it was 7.2%; in experiment [6], 0%; in [7] it was 96.4%. Also, the Activity in [8] came to 98%; in experiment [9], 100%; in [10], 10.5%; in [12] it was 22.9%; in experiment [13], 16.4%; in [14], 33.9%. Further, the Activity in experiment [15] is recorded as 72.6%; in experiment [16], 89.6%; in experiment [17], 79.2%; in experiment [18], 20.8%; in [19] it was 20%; in experiment [20] it was 13.6%. In addition, in experiment [5], the result was Active. This molecule also yielded an MIC90 in experiment [11] of 6.4 µM (≈ 4.26 µg/mL).
With `COc1c(OCCCCN2CCOCC2)cc2oc3cc(OCCCCN4CCOCC4)c(CC=C(C)C)c(O)c3c(=O)c2c1CC=C(C)C`, the Activity in experiment [1] is given as 13.5%; in [2], 50.2%; in [3], 4.5%; in experiment [4], 66.9%; in experiment [6] it was 0%; in experiment [7] it was 91.9%. The Activity was 95.3% in [8]; 100% in experiment [9]; 14.3% in experiment [10]; 8.6% in experiment [12]; 80% in [13]; 92.3% in experiment [14]. Moreover, the Activity in [15] worked out at 91.4%; in experiment [16], 33.4%; in [17] it was 79.8%; in [18] it was 20.2%; in experiment [21], 3.3; in experiment [20], 95.5%. The molecule also returned an MIC90 in experiment [11] of 30 µM (≈ 20.8 µg/mL).
In the case of `CCCN(CCC)CCCCOc1cc2oc3cc(OCCCCN(CCC)CCC)c(OC)c(CC=C(C)C)c3c(=O)c2c(O)c1CC=C(C)C`, the Activity came to 48.5% in experiment [1]; 70.5% in experiment [2]; 37.5% in [3]; 24.7% in experiment [4]; 0% in experiment [6]; 97.8% in [7]. In addition, the Activity in experiment [8] was 97.5%; in [9], 100%; in [10] it was 9.4%; in experiment [22] it was 1.5; in [23] it was “Dose-dependent effect”; in experiment [12], 28%. In addition, the Activity came to 55.8% in [13]; 75.8% in experiment [14]; 79.9% in experiment [15]; 42.1% in experiment [16]; 74.9% in experiment [17]; 25.1% in [18]. The results for the Activity in [19], in [20] and in experiment [24] were 76.6%, 62.5% and “Dose-dependent effect”, respectively. This molecule returned an MIC90 in experiment [11] of 3.2 µM (≈ 2.31 µg/mL).
